Test results from patent publication US20090220537A1, “VACCINE DELIVERY SYSTEM” (THE UNIVERSITY OF QUEENSLAND, priority 2005, published 2009).

Legend:
RSV = assay type: in vivo, mice
[1] = tested on: E7-expressing TC-1 tumour cells; assay type: in vivo; conditions: H-2b mice immunised twice, 2×10^5 TC-1 cells two weeks after second immunisation; within 15 days; FIG. 6C

Sequence | Mean RSV load per ½-lung in mice with detectable infection (RSV; BALB/c mice challenged intranasally with 8×10^5 pfu RSV, lungs 4 days later, immunofocus assay) | Number of mice (%) with detectable RSV in lungs (RSV; BALB/c mice, 5 per group, challenged intranasally with 8×10^5 pfu RSV 3 weeks after immunisation, lungs 4 days later, limit of detection 5×10^2 pfu/lung, listed as M15 peptide+adjuvant) | RSV-specific immunostaining of lung cryosections (RSV; indirect immunofluorescence, 4 days after challenge, FIG. 5) | Mice that developed tumour [1]
ESYIGSINNITKQSA [M215 peptide + adjuvant] | 1.0 × 10^3 pfu | One of five | reduced staining | –
RAHYNIVTF [RAH peptide+adjuvant] | – | – | – | level of protection was consistent with that observed
